Assay results as given in patent US20080182859A1 (Curis, Inc., priority 2006, published 2008).
Counter-ions that a name gives are not always drawn.

Legend:
Type in all cases: cell-based
sonic hedgehog pathway [1] = assay: Hedgehog pathway Gli-luciferase reporter assay, TM3 cells; conditions: TM3 mouse Leydig cells
Summary of the method: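 Agonist mode: cells carrying a luciferase gene downstream of the gli promoter received compound at 1–5 μM in 0.5% FBS for 24 h, optionally sensitised with 1–5 ng/ml octyl-modified hedgehog protein; luminescence gave % activation and EC50.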

sonic hedgehog pathway [2] = assay: Hedgehog pathway Gli-luciferase reporter assay, S12 cells; conditions: S12 mouse embryonic mesenchymal cells, read-out: S12 Avg. EC50
Text: Mouse (TM3: mouse Leydig cells; S12: mouse embryonic mesenchymal cells) and human (Daoy: human medulloblastoma cell; HepM: human embryonic palatal mesenchymal cell) cell lines are used to screen small molecules for their ability to modulate the activity of the sonic hedgehog pathway (Table 1, Table 2, and Table 3). Stable hedgehog pathway reporter cell lines are established by specific antibiotic selection following transfection of a reporter plasmid containing a luciferase gene located directly downstream from the gli promoter. Consequently, any observable changes in cellular luciferase activity may be attributed to changes in sonic hedgehog pathway activity in mouse and human cells, respectively, since gli is the major by-product of this pathway. To calculate activity, we generate an eleven point dose curve for each compound using 1:3 dilutions in 96 well assay plates. Each plate tested also contains low and high control to establish maximal pathway activation so to establish/compare a percentage activation of each tested compound (AMAX) on respective plates. Also we calculate EC50 values, or a concentration where the pathway will be exactly 50% activated, for each tested compound to determine potency. In these cell lines, compounds that register >20% AMAX values are considered active.
Stable hedgehog pathway reporter cell lines are established following specific antibiotic selection following transfection of a reporter plasmid In short, typically cells are plated in MicroTiter-plates at 10,000-20,000 cells per well, in growth media (containing 10%-20% FBS). After 48-72 hrs (HGL and DGL respectively) the media in the assay plates is switched to low-serum containing media (0.5% FBS). At that time compounds are added (at 1-5 μM) to the assay plates, in the presence or absence of hedgehog protein (octyl-modified version; 1-5 ng/ml). After another 24 hrs of incubation, the media from the assay plates is discarded and replaced with luciferase assay-mix. Subsequently, plates are incubated at RT for ˜15-30 mins and then read in a luminometer. [note: addition of the Hedgehog protein, although not critical, will sensitize the assay allowing the identification of weak actives].

sonic hedgehog pathway [3] = assay: Human hedgehog reporter assay HEPM-GliLuc (HGL); conditions: HepM human embryonic palatal mesenchymal cells, Gli-luciferase reporter
Summary of the method: (§1)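 Stable Gli-promoter luciferase reporter lines (human HepM, Daoy; mouse S12) plated at 10,000–20,000 cells/well, switched to 0.5% FBS after 48–72 h, then given compound (1–5 μM; 11-point 1:3 dose curves) with or without octyl-modified hedgehog protein (1–5 ng/ml) for 24 h. Luminescence read; AMAX vs plate controls and EC50 derived.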

sonic hedgehog pathway [4] = assay: Human hedgehog reporter assay Daoy-GliLuc (DGL); conditions: Daoy human medulloblastoma cells, Gli-luciferase reporter; read-out: Daoy Avg. EC50
Summary of the method: as §1

| Compound | EC50 (sonic hedgehog pathway [1]) [nM] | EC50 (sonic hedgehog pathway [4]) [nM] | EC50 (sonic hedgehog pathway [2]) [nM] | EC50 (sonic hedgehog pathway [3]) [nM] |
| --- | --- | --- | --- | --- |
| CN[C@H]1CC[C@@H](N(Cc2cc(-c3ccc(CO)cc3)ccc2OC)C(=O)c2sc3c(F)ccc(F)c3c2Cl)CC1 [Compound 338, 3-Chloro-4,7-difluoro-benzo[b]thiophene-2-carboxylic acid (4′-hydroxymethyl-4-methoxy-biphenyl-3-ylmethyl)-(4-methylamino-cyclohexyl)-amide trifluoroacetate] | < 50 | < 50 | < 50 | < 50 |
| CN[C@H]1CC[C@@H](N(Cc2cc(-c3ccncc3)ccc2OC)C(=O)c2sc3c(F)ccc(F)c3c2Cl)CC1 [Compound 342, 3-Chloro-4,7-difluoro-benzo[b]thiophene-2-carboxylic acid (2-methoxy-5-pyridin-4-yl-benzyl)-(4-methylamino-cyclohexyl)-amide dihydrochloride] | < 50 | < 50 | < 50 | < 50 |
| CN[C@H]1CC[C@@H](N(Cc2cc(-c3ccc(N(C)C(C)=O)cc3)ccc2OC)C(=O)c2sc3c(F)ccc(F)c3c2Cl)CC1 [Compound 336, 3-Chloro-4,7-difluoro-benzo[b]thiophene-2-carboxylic acid [4′-(acetyl-methyl-amino)-4-methoxy-biphenyl-3-ylmethyl]-(4-methylamino-cyclohexyl)-amide hydrochloride] | < 50 | < 50 | < 50 | < 50 |
| CN[C@H]1CC[C@@H](N(Cc2cc(-c3ccnc(C(=O)N(C)C)c3)ccc2OC)C(=O)c2sc3c(F)ccc(F)c3c2Cl)CC1 [Compound R9, 4-(3-{[(3-Chloro-4,7-difluoro-benzo[b]thiophene-2-carbonyl)-(4-methylamino-cyclohexyl)-amino]-methyl}-4-methoxy-phenyl)-pyridine-2-carboxylic acid dimethylamide dihydrochloride] | < 50 | < 50 | < 50 | < 50 |
| CN[C@H]1CC[C@@H](N(Cc2cc(-c3ccc(N)nc3)ccc2OC)C(=O)c2sc3cccc(F)c3c2Cl)CC1 [362 (R13), 3-Chloro-4-fluoro-benzo[b]thiophene-2-carboxylic acid [5-(6-amino-pyridin-3-yl)-2-methoxy-benzyl]-(4-methylamino-cyclohexyl)-amide dihydrochloride] | < 50 | < 50 | < 50 | < 50 |
| CN[C@H]1CC[C@@H](N(Cc2cc(-c3ccc(C(C)=O)cc3)ccc2OC)C(=O)c2sc3ccccc3c2Cl)CC1 [Compound 303, 3-Chloro-benzo[b]thiophene-2-carboxylic acid (4′-acetyl-4-methoxy-biphenyl-3-ylmethyl)-(4-methylamino-cyclohexyl)-amide hydrochloride] | < 50 | < 50 | < 50 | < 50 |
| CN[C@H]1CC[C@@H](N(Cc2cc(-c3ccncc3)ccc2OC)C(=O)c2sc3cccc(F)c3c2Cl)CC1 [Compound 359, 3-Chloro-4-fluoro-benzo[b]thiophene-2-carboxylic acid (2-methoxy-5-pyridin-4-yl-benzyl)-(4-methylamino-cyclohexyl)-amide dihydrochloride] | < 50 | < 50 | < 50 | < 50 |
| CN[C@H]1CC[C@@H](N(Cc2cc(-c3ccnc(N)c3)ccc2OC)C(=O)c2sc3c(F)ccc(F)c3c2Cl)CC1 [Compound 355] | < 50 | – | < 50 | < 50 |
| CN[C@H]1CC[C@@H](N(Cc2cc(-c3ccc(NS(C)(=O)=O)nc3)ccc2OC)C(=O)c2sc3c(F)ccc(F)c3c2Cl)CC1 [Compound R10, 3-Chloro-4,7-difluoro-benzo[b]thiophene-2-carboxylic acid [5-(6-methanesulfonylamino-pyridin-3-yl)-2-methoxy-benzyl]-(4-methylamino-cyclohexyl)-amide dihydrochloride] | < 50 | – | < 50 | < 50 |
| CN[C@H]1CC[C@@H](N(Cc2cc(-c3ccc(C(=O)N(C)C)cc3)ccc2OC)C(=O)c2sc3ccccc3c2Cl)CC1 [317 (R19)] | < 50 | – | < 50 | < 50 |

More lines, main results first:

| EC50 (sonic hedgehog pathway [1]) [nM] | EC50 (sonic hedgehog pathway [4]) [nM] | Compound | EC50 (sonic hedgehog pathway [2]) [nM] | EC50 (sonic hedgehog pathway [3]) [nM] |
| --- | --- | --- | --- | --- |
| < 50 | < 50 | CNc1cc(-c2ccc(OC)c(CN(C(=O)c3sc4c(F)ccc(F)c4c3Cl)[C@H]3CC[C@@H](NC)CC3)c2)ccn1 [Compound 357, 3-Chloro-4,7-difluoro-benzo[b]thiophene-2-carboxylic acid [2-methoxy-5-(2-methylamino-pyridin-4-yl)-benzyl]-(4-methylamino-cyclohexyl)-amide bis(trifluoroacetate)] | < 50 | < 50 |
| < 50 | < 50 | CN[C@H]1CC[C@@H](N(Cc2cc(-c3ccccn3)ccc2OC)C(=O)c2sc3c(F)ccc(F)c3c2Cl)CC1 [Compound 367, 3-Chloro-4,7-difluoro-benzo[b]thiophene-2-carboxylic acid (2-methoxy-5-pyridin-2-yl-benzyl)-(4-methylamino-cyclohexyl)-amide dihydrochloride] | < 50 | < 50 |
| < 50 | < 50 | CN[C@H]1CC[C@@H](N(Cc2cc(-c3ccnc(C(N)=O)c3)ccc2OC)C(=O)c2sc3c(F)ccc(F)c3c2Cl)CC1 [354 (R17)] | < 50 | < 50 |
| < 50 | < 50 | CN[C@H]1CC[C@@H](N(Cc2cc(-c3ccc(C(C)=O)cc3)ccc2OC)C(=O)c2sc3c(F)ccc(F)c3c2Cl)CC1 [Compound 332, 3-Chloro-4,7-difluoro-benzo[b]thiophene-2-carboxylic acid (4′-acetyl-4-methoxy-biphenyl-3-ylmethyl)-(4-methylamino-cyclohexyl)-amide hydrochloride] | < 50 | < 50 |
| < 50 | < 50 | CN[C@H]1CC[C@@H](N(Cc2cc(-c3cccnc3)ccc2OC)C(=O)c2sc3c(F)ccc(F)c3c2Cl)CC1 [Compound 361, 3-Chloro-4,7-difluoro-benzo[b]thiophene-2-carboxylic acid (2-methoxy-5-pyridin-3-yl-benzyl)-(4-methylamino-cyclohexyl)-amide dihydrochloride] | < 50 | < 50 |
| < 50 | < 50 | CN[C@H]1CC[C@@H](N(Cc2cc(-c3ccnc(C)c3)ccc2OC)C(=O)c2sc3cccc(F)c3c2Cl)CC1 [Compound 348, 3-Chloro-4-fluoro-benzo[b]thiophene-2-carboxylic acid [2-methoxy-5-(2-methyl-pyridin-4-yl)-benzyl]-(4-methylamino-cyclohexyl)-amide bis(trifluoroacetate)] | < 50 | < 50 |
| < 50 | – | CN[C@H]1CC[C@@H](N(Cc2cc(-c3ccc(N)nc3)ccc2OC)C(=O)c2sc3ccccc3c2Cl)CC1 [Compound 319, 3-Chloro-benzo[b]thiophene-2-carboxylic acid [5-(6-amino-pyridin-3-yl)-2-methoxy-benzyl]-(4-methylamino-cyclohexyl)-amide dihydrochloride] | < 50 | < 50 |
| < 50 | – | CN[C@H]1CC[C@@H](N(Cc2cc(-c3ccc(CO)cc3)ccc2OC)C(=O)c2sc3ccccc3c2Cl)CC1 [Compound 329, 3-Chloro-benzo[b]thiophene-2-carboxylic acid (4′-hydroxymethyl-4-methoxy-biphenyl-3-ylmethyl)-(4-methylamino-cyclohexyl)-amide hydrochloride] | < 50 | < 50 |
| < 50 | – | CN[C@H]1CC[C@@H](N(Cc2cc(-c3ccc(C(N)=O)cc3)ccc2OC)C(=O)c2sc3ccccc3c2Cl)CC1 [Compound 316, 3-Chloro-benzo[b]thiophene-2-carboxylic acid (4′-carbamoyl-4-methoxy-biphenyl-3-ylmethyl)-(4-methylamino-cyclohexyl)-amide hydrochloride] | < 50 | < 50 |
